From the NIST ThermoML archive (doi:10.1021/acs.jced.8b00132)
Where “and” joins values, the source holds several entries; their conditions need not be identical. Equal values may be shown once.

Conditions: Gas

O=C(C(F)(F)C(F)(F)F)C(F)(C(F)(F)F)C(F)(F)F [dodecafluoro-2-methylpentan-3-one]
Conditions | thermal conductivity
453.64 K, 8480 kPa, transient hot wire | 0.04343 W/m/K
453.64 K, 31251 kPa, transient hot wire | 0.05647 W/m/K
453.65 K, 526 kPa, hot wire | 0.02432 W/m/K
453.66 K, 8479 kPa, transient hot wire | 0.04348 W/m/K
453.66 K, 47049 kPa, transient hot wire | 0.06259 W/m/K
453.67 K, 1718 kPa, transient hot wire | 0.02603 W/m/K
453.67 K, 47042 kPa, transient hot wire | 0.06272 W/m/K
453.68 K, 1718 kPa, transient hot wire | 0.02589 W/m/K
453.68 K, 13120 kPa, transient hot wire | 0.04693 W/m/K
453.68 K, 13121 kPa, transient hot wire | 0.04701 W/m/K
453.69 K, 5641 kPa, transient hot wire | 0.04062 W/m/K
453.7 K, 353 kPa, hot wire | 0.02345 W/m/K
453.7 K, 5640 kPa, transient hot wire | 0.04066 W/m/K
453.72 K, 350 kPa, hot wire | 0.02302 W/m/K
453.73 K, 171 kPa, hot wire | 0.02261 W/m/K
453.73 K, 174 kPa, hot wire | 0.0228 W/m/K
453.73 K, 4189 kPa, transient hot wire | 0.03831 W/m/K
453.73 K, 4192 kPa, transient hot wire | 0.03871 W/m/K
453.73 K, 46962 kPa, transient hot wire | 0.06254 W/m/K
453.73 K, 46969 kPa, transient hot wire | 0.06263 W/m/K
453.74 K, 525 kPa, hot wire | 0.0244 W/m/K
453.75 K, 524 kPa, hot wire | 0.02432 W/m/K
453.75 K, 1718 kPa, transient hot wire | 0.02601 W/m/K
453.76 K, 1718 kPa, transient hot wire | 0.02605 W/m/K
453.77 K, 20261 kPa, transient hot wire | 0.05121 W/m/K
453.77 K, 20262 kPa, transient hot wire | 0.0513 W/m/K
453.78 K, 48 kPa, hot wire | 0.02241 W/m/K
453.78 K, 31246 kPa, transient hot wire | 0.0566 W/m/K
453.79 K, 31248 kPa, transient hot wire | 0.05653 W/m/K
453.8 K, 48 kPa, hot wire | 0.02228 W/m/K
453.8 K, 344 kPa, hot wire | 0.0233 W/m/K
453.8 K, 347 kPa, hot wire | 0.02342 W/m/K
453.8 K, 5666 kPa, transient hot wire | 0.0408 W/m/K
453.8 K, 8477 kPa, transient hot wire | 0.04345 W/m/K
453.81 K, 1718 kPa, transient hot wire | 0.02631 W/m/K
453.81 K, 47035 kPa, transient hot wire | 0.06264 W/m/K
453.82 K, 8478 kPa, transient hot wire | 0.0434 W/m/K
453.84 K, 171 kPa, hot wire | 0.02268 W/m/K
453.84 K, 524 kPa, hot wire | 0.02443 W/m/K
453.84 K, 13123 kPa, transient hot wire | 0.04696 W/m/K
453.85 K, 170 kPa, hot wire | 0.02247 W/m/K
453.85 K, 13121 kPa, transient hot wire | 0.04695 W/m/K
453.86 K, 523 kPa, hot wire | 0.02411 W/m/K
453.87 K, 5638 kPa, transient hot wire | 0.0407 W/m/K
453.87 K, 46957 kPa, transient hot wire | 0.06253 W/m/K
453.88 K, 47 kPa, hot wire | 0.02246 W/m/K and 0.02258 W/m/K
453.88 K, 1718 kPa, transient hot wire | 0.02616 W/m/K and 0.02618 W/m/K
453.88 K, 46954 kPa, transient hot wire | 0.06253 W/m/K
453.9 K, 340 kPa, hot wire | 0.02338 W/m/K
453.9 K, 342 kPa, hot wire | 0.02344 W/m/K
453.91 K, 1365 kPa, transient hot wire | 0.02445 W/m/K
453.92 K, 1364 kPa, transient hot wire | 0.02439 W/m/K
453.93 K, 20259 kPa, transient hot wire | 0.05122 W/m/K
453.94 K, 524 kPa, hot wire | 0.02452 W/m/K
453.94 K, 1718 kPa, transient hot wire | 0.02654 W/m/K
453.94 K, 1719 kPa, transient hot wire | 0.02663 W/m/K
453.94 K, 20259 kPa, transient hot wire | 0.05128 W/m/K
453.94 K, 31248 kPa, transient hot wire | 0.05655 W/m/K
453.95 K, 170 kPa, hot wire | 0.0227 W/m/K and 0.02256 W/m/K
453.95 K, 524 kPa, hot wire | 0.02446 W/m/K
453.95 K, 31244 kPa, transient hot wire | 0.05645 W/m/K
453.95 K, 47020 kPa, transient hot wire | 0.06258 W/m/K
453.96 K, 47012 kPa, transient hot wire | 0.06261 W/m/K
453.98 K, 48 kPa, hot wire | 0.02243 W/m/K and 0.02253 W/m/K
454.01 K, 338 kPa, hot wire | 0.02346 W/m/K
454.02 K, 339 kPa, hot wire | 0.02333 W/m/K
454.02 K, 13121 kPa, transient hot wire | 0.047 W/m/K and 0.04696 W/m/K
454.02 K, 46938 kPa, transient hot wire | 0.06262 W/m/K
454.02 K, 46945 kPa, transient hot wire | 0.06264 W/m/K
454.06 K, 523 kPa, hot wire | 0.02445 W/m/K
454.07 K, 170 kPa, hot wire | 0.02273 W/m/K
454.07 K, 522 kPa, hot wire | 0.02433 W/m/K
454.07 K, 1364 kPa, transient hot wire | 0.02449 W/m/K
454.07 K, 1365 kPa, transient hot wire | 0.02446 W/m/K
454.07 K, 1718 kPa, transient hot wire | 0.02688 W/m/K and 0.02682 W/m/K
454.08 K, 169 kPa, hot wire | 0.02266 W/m/K
454.09 K, 48 kPa, hot wire | 0.02257 W/m/K
454.1 K, 48 kPa, hot wire | 0.0225 W/m/K
454.1 K, 20256 kPa, transient hot wire | 0.0513 W/m/K and 0.05118 W/m/K
454.1 K, 31241 kPa, transient hot wire | 0.05644 W/m/K
454.1 K, 31244 kPa, transient hot wire | 0.05644 W/m/K
454.11 K, 47006 kPa, transient hot wire | 0.06269 W/m/K
454.13 K, 337 kPa, hot wire | 0.02342 W/m/K
454.13 K, 338 kPa, hot wire | 0.0234 W/m/K
